Results taken from US20240390295A1, “METHODS FOR TREATING DEPRESSION” (JANSSEN PHARMACEUTICA NV, priority 2020, published 2024).
Where “and” joins values, the source holds several entries; their conditions need not be identical. Equal entries are not always repeated.

Test system: adult patients (aged 18-64 years) with TRD
Assay: Maximum time to onset of clinician-reported adverse events by AE week 1/week 4 occurrence (Tables 5-16; modal dose 56, modal dose 84, Total)
Assay type: in vivo, human
Conditions: for Blood Pressure (clinician): n >60 m / Blood Pressure (clinician): 31-60 m / Blood Pressure (clinician): 61-90 m / Blood Pressure (clinician): % >60 m / Blood Pressure (clinician): TOTAL / Dissociation (clinician), % >60 m / Dizziness, % >60 m / Sedation, % >60 m / Vertigo, % >60 m: Based on Week 4; for Sedation(clinician-reported), n (%) / Vertigo(clinician-reported), n (%) / Dissociation(clinician-reported), n (%) / Blood pressure increased (clinician-reported), n (%) / Dizziness(clinician-reported), n (%): listed as ESK
Description: Patients were monitored for >90 minutes after ESK administration at each treatment session, after which time they could leave the clinical site at the clinician's discretion. AEs were monitored and reported, and safety assessments, including clinical laboratory tests and physical examinations, were conducted throughout the study. Clinician-reported AEs were categorized as mild, moderate, or severe based on clinical judgement (Table 1).
Since flexible dosing (ESK 56 or 84 mg) was permitted in the studies and an individual patient's doses could change within dosing timeframes, patients were stratified by modal dose during the respective periods.
The time to onset of the adverse events experienced by patients in Example 2 was analyzed. Tables 5-11 include the summary of specific adverse events by their respective categorized maximum time to Onset (i) across sessions 3-8 during Induction Phase by AE week 1 occurrence (Table 5), (ii) during Optimization Phase by AE week 1 occurrence (Table 6), (iii) during Optimization Phase by AE week 4 occurrence (Table 7), (iv) during Month 3-6 of Maintenance Phase by AE week 1 occurrence (Table 8), (v) Month 3-6 of Maintenance Phase by AE week 4 occurrence (Table 9), (vi) Month 6-12 of Maintenance Phase by AE week 1 occurrence (Table 10), and (vii) during Month 6-12 of Maintenance Phase by AE week 4 (Table 11).
Tables 12-16 include the incidences of clinician-reported blood pressure (Table 12), clinician-reported dissociation (Table 13), dizziness (Table 14), sedation (Table 15), and vertigo (Table 16) spanning week 1 to month 12 using the data of Example 2.

[1] = Induction Phase sessions 3-8, AE week 1 None
[2] = Induction Phase sessions 3-8, AE week 1 Once
[3] = Induction Phase sessions 3-8, AE week 1 Twice
[4] = Month 3-6 Maintenance, AE week 1 None, onset missing
[5] = Month 3-6 Maintenance, AE week 4 None, onset 31-60 minutes
[6] = Month 3-6 Maintenance, AE week 4 None, onset missing
[7] = Month 6-12 Maintenance, AE week 4 Once
[8] = Month 6-12 Maintenance, AE week 4 Twice, onset 31-60 minutes
[9] = Optimization Phase, AE week 1 Once
[10] = Optimization Phase, AE week 4 None

CN[C@]1(c2ccccc2Cl)CCCCC1=O [esketamine, (S)-2-(2-chlorophenyl)-2-(methylamino)cyclohexanone]
Blood Pressure (clinician): n >60 m (None, Month 3-6): 1 | Blood Pressure (clinician): 31-60 m (None, Month 6-12): 6 | Blood Pressure (clinician): 61-90 m (None, Month 6-12): 1 | Blood Pressure (clinician): % >60 m (None, Month 6-12): 12.5% | Blood Pressure (clinician): TOTAL (None, Month 6-12): 8 | Blood Pressure (clinician): n >60 m (None, Month 6-12): 1 | Blood Pressure (clinician): 31-60 m (Once, Month 2): 9 | Blood Pressure (clinician): % >60 m (Once, Month 2): 0% | Blood Pressure (clinician): TOTAL (Once, Month 2): 9 | Blood Pressure (clinician): n >60 m (Once, Month 2): 0 | Blood Pressure (clinician): 31-60 m (Once, Month 3-6): 5 | Blood Pressure (clinician): % >60 m (Once, Month 3-6): 0% | Blood Pressure (clinician): TOTAL (Once, Month 3-6): 5 | Blood Pressure (clinician): n >60 m (Once, Month 3-6): 0 | Blood Pressure (clinician): 31-60 m (Once, Month 6-12): 3 | Blood Pressure (clinician): % >60 m (Once, Month 6-12): 0% | Blood Pressure (clinician): TOTAL (Once, Month 6-12): 3 | Blood Pressure (clinician): n >60 m (Once, Month 6-12): 0 | Blood Pressure (clinician): 31-60 m (Twice, Month 2): 9 | Blood Pressure (clinician): % >60 m (Twice, Month 2): 0% | Blood Pressure (clinician): TOTAL (Twice, Month 2): 9 | Blood Pressure (clinician): n >60 m (Twice, Month 2): 0 | Blood Pressure (clinician): 31-60 m (Twice, Month 3-6): 2 | Blood Pressure (clinician): 61-90 m (Twice, Month 3-6): 1 | Blood Pressure (clinician): % >60 m (Twice, Month 3-6): 33.3% | Blood Pressure (clinician): TOTAL (Twice, Month 3-6): 3 | Blood Pressure (clinician): n >60 m (Twice, Month 3-6): 1 | Blood Pressure (clinician): 31-60 m (Twice, Month 6-12): 2 | Blood Pressure (clinician): % >60 m (Twice, Month 6-12): 0% | Blood Pressure (clinician): TOTAL (Twice, Month 6-12): 2 | Blood Pressure (clinician): n >60 m (Twice, Month 6-12): 0 | Dissociation (clinician), % >60 m (incidence None, Month 2): 0% | Dizziness, % >60 m (incidence None, Month 2): 8.6% | Sedation, % >60 m (incidence None, Month 2): 0% | Vertigo, % >60 m (incidence None, Month 2): 12% | Dissociation (clinician), % >60 m (incidence None, Month 3-6): 2.6% | Dizziness, % >60 m (incidence None, Month 3-6): 2.1% | Sedation, % >60 m (incidence None, Month 3-6): 14.3% | Vertigo, % >60 m (incidence None, Month 3-6): 13.6% | Dissociation (clinician), % >60 m (incidence None, Month 6-12): 4.2% | Dizziness, % >60 m (incidence None, Month 6-12): 0% | Sedation, % >60 m (incidence None, Month 6-12): 0% | Vertigo, % >60 m (incidence None, Month 6-12): 0% | Dissociation (clinician), % >60 m (incidence Once, Month 2): 4.8% | Dizziness, % >60 m (incidence Once, Month 2): 3.7% | Sedation, % >60 m (incidence Once, Month 2): 0% | Vertigo, % >60 m (incidence Once, Month 2): 4.3% | Dissociation (clinician), % >60 m (incidence Once, Month 3-6): 6.7% | Dizziness, % >60 m (incidence Once, Month 3-6): 0% | Sedation, % >60 m (incidence Once, Month 3-6): 0% | Vertigo, % >60 m (incidence Once, Month 3-6): 0% | Dissociation (clinician), % >60 m (incidence Once, Month 6-12): 0% | Dizziness, % >60 m (incidence Once, Month 6-12): 0% | Sedation, % >60 m (incidence Once, Month 6-12): 0% | Vertigo, % >60 m (incidence Once, Month 6-12): 25% | Dissociation (clinician), % >60 m (incidence Twice, Month 2): 0% | Dizziness, % >60 m (incidence Twice, Month 2): 3.8% | Sedation, % >60 m (incidence Twice, Month 2): 0% | Vertigo, % >60 m (incidence Twice, Month 2): 0% | Dissociation (clinician), % >60 m (incidence Twice, Month 3-6): 3% | Dizziness, % >60 m (incidence Twice, Month 3-6): 3% | Sedation, % >60 m (incidence Twice, Month 3-6): 0% | Vertigo, % >60 m (incidence Twice, Month 3-6): 9.5% | Dissociation (clinician), % >60 m (incidence Twice, Month 6-12): 0% | Dizziness, % >60 m (incidence Twice, Month 6-12): 5.9% | Sedation, % >60 m (incidence Twice, Month 6-12): 0% | Vertigo, % >60 m (incidence Twice, Month 6-12): 0% | Blood pressure increased: time to onset 31-60 minutes [1]: 10 (90.9%) and 10 (100%) and 20 (95.2%) | Sedation: time to onset 31-60 minutes [1]: 2 (22.2%) and 2 (20.0%) and 4 (21.1%) | Sedation: time to onset >90 minutes [1]: 1 (11.1%) and 1 (10.0%) and 2 (10.5%) | Vertigo: time to onset 61-90 minutes [1]: 1 (3.3%) and 1 (6.7%) and 2 (4.4%) | Dizziness: time to onset 31-60 minutes [2]: 4 (12.1%) and 4 (17.4%) and 8 (14.3%) | Dizziness: time to onset 61-90 minutes [2]: 1 (3.0%) and 1 (4.3%) and 2 (3.6%) | Vertigo: time to onset >90 minutes [2]: 1 (9.1%) and 1 (5.6%) and 2 (6.9%) | Dissociation: time to onset 61-90 minutes [3]: 2 (5.6%) and 2 (7.1%) and 4 (6.3%) | Dizziness: time to onset >90 minutes [3]: 1 (2.8%) and 1 (2.5%) and 2 (2.6%) | Sedation(clinician-reported), n (%) (Month 3-6 Maintenance, AE week 1 None, onset 31-60 minutes): 1 (20.0%) and 1 (8.3%) and 2 (11.8%) | Vertigo(clinician-reported), n (%) (Month 3-6 Maintenance, AE week 1 None, onset 61-90 minutes): 1 (10.0%) and 1 (12.5%) and 2 (11.1%) | Dissociation(clinician-reported), n (%) [4]: 1 (5.9%) and 1 (5.3%) and 2 (5.6%) | Sedation(clinician-reported), n (%) [4]: 1 (20.0%) and 1 (8.3%) and 2 (11.8%) | Blood pressure increased (clinician-reported), n (%) (Month 3-6 Maintenance, AE week 1 Once): 2 (2.0%) and 2 (1.9%) and 4 (2.0%) | Blood pressure increased (clinician-reported), n (%) (Month 3-6 Maintenance, AE week 1 Once, onset 31-60 minutes): 2 (100%) and 4 (100%) | Blood pressure increased (clinician-reported), n (%) (Month 3-6 Maintenance, AE week 1 Twice): 2 (2.0%) and 2 (1.9%) and 4 (2.0%) | Vertigo(clinician-reported), n (%) (Month 3-6 Maintenance, AE week 1 Twice, onset 0-30 minutes): 11 (91.7%) and 11 (84.6%) and 22 (88.0%) | Dissociation(clinician-reported), n (%) [5]: 5 (27.8%) and 5 (25.0%) and 10 (26.3%) | Sedation(clinician-reported), n (%) [5]: 1 (20.0%) and 1 (11.1%) and 2 (14.3%) | Vertigo(clinician-reported), n (%) (Month 3-6 Maintenance, AE week 4 None, onset 61-90 minutes): 1 (8.3%) and 1 (10.0%) and 2 (9.1%) | Dissociation(clinician-reported), n (%) [6]: 1 (5.6%) and 1 (5.0%) and 2 (5.3%) | Dizziness(clinician-reported), n (%) [6]: 2 (6.9%) and 2 (11.1%) and 4 (8.5%) | Vertigo(clinician-reported), n (%) (Month 3-6 Maintenance, AE week 4 Once): 3 (3.0%) and 3 (2.9%) and 6 (3.0%) | Vertigo(clinician-reported), n (%) (Month 3-6 Maintenance, AE week 4 Once, onset 0-30 minutes): 3 (100%) and 6 (100%) | Dizziness(clinician-reported), n (%) (Month 3-6 Maintenance, AE week 4 Once, onset 31-60 minutes): 1 (14.3%) and 1 (16.7%) and 2 (15.4%) | Vertigo(clinician-reported), n (%) (Month 3-6 Maintenance, AE week 4 Twice, onset 61-90 minutes): 1 (12.5%) and 1 (7.7%) and 2 (9.5%) | Sedation(clinician-reported), n (%) (Month 6-12 Maintenance, AE week 1 None): 5 (7.5%) and 5 (8.3%) and 10 (7.9%) | Sedation(clinician-reported), n (%) (Month 6-12 Maintenance, AE week 1 None, onset missing): 1 (20.0%) and 2 (20.0%) | Dizziness(clinician-reported), n (%) (Month 6-12 Maintenance, AE week 1 Twice): 7 (10.4%) and 7 (11.7%) and 14 (11.0%) | Vertigo(clinician-reported), n (%) (Month 6-12 Maintenance, AE week 1 Twice, onset 31-60 minutes): 1 (10.0%) and 1 (16.7%) and 2 (12.5%) | Sedation(clinician-reported), n (%) (Month 6-12 Maintenance, AE week 4 None): 4 (6.0%) and 4 (6.7%) and 8 (6.3%) | Vertigo(clinician-reported), n (%) (Month 6-12 Maintenance, AE week 4 None, onset 31-60 minutes): 1 (14.3%) and 1 (25.0%) and 2 (18.2%) | Sedation(clinician-reported), n (%) (Month 6-12 Maintenance, AE week 4 None, onset missing): 1 (25.0%) and 2 (25.0%) | Sedation(clinician-reported), n (%) [7]: 2 (3.0%) and 2 (3.3%) and 4 (3.1%) | Vertigo(clinician-reported), n (%) [7]: 2 (3.0%) and 2 (3.3%) and 4 (3.1%) | Vertigo(clinician-reported), n (%) (Month 6-12 Maintenance, AE week 4 Once, onset 0-30 minutes): 1 (50.0%) and 2 (50.0%) | Dissociation(clinician-reported), n (%) (Month 6-12 Maintenance, AE week 4 Once, onset 31-60 minutes): 1 (100%) and 1 (12.5%) and 2 (22.2%) | Blood pressure increased (clinician-reported), n (%) (Month 6-12 Maintenance, AE week 4 Twice): 1 (1.5%) and 1 (1.7%) and 2 (1.6%) | Blood pressure increased (clinician-reported), n (%) [8]: 1 (100%) and 2 (100%) | Vertigo(clinician-reported), n (%) [8]: 1 (11.1%) and 1 (16.7%) and 2 (13.3%) | Dizziness: time to onset >90 minutes [9]: 1 (5.6%) and 1 (6.7%) and 2 (6.1%) | Sedation: patients with AE [9]: 2 (1.5%) and 2 (1.2%) and 4 (1.3%) | Vertigo: time to onset 31-60 minutes [9]: 1 (12.5%) and 1 (9.1%) and 2 (10.5%) | Vertigo: time to onset >90 minutes [9]: 1 (12.5%) and 1 (9.1%) and 2 (10.5%) | Blood pressure increased: patients with AE [10]: 9 (6.8%) and 9 (5.4%) and 18 (6.0%) | Dissociation: patients with AE [10]: 23 (17.4%) and 23 (13.8%) and 46 (15.4%) | Sedation: patients with AE [10]: 5 (3.8%) and 5 (3.0%) and 10 (3.3%) | Vertigo: time to onset 61-90 minutes [10]: 1 (10.0%) and 1 (6.7%) and 2 (8.0%) | Dizziness: time to onset 31-60 minutes (Optimization Phase, AE week 4 Once): 1 (9.1%) and 1 (6.3%) and 2 (7.4%) | Dizziness: time to onset 31-60 minutes (Optimization Phase, AE week 4 Twice): 1 (3.7%) and 1 (3.8%) and 2 (3.8%) | time at which adverse events (particularly dissociation, increase in blood pressure) generally peak (human, in vivo, other: intranasal): ~40 min
